The text below walks through data of patent EP2873670A1, “Bis azainositol zirconium complexes for X-ray imaging” (Bayer Pharma Aktiengesellschaft, priority 2013, dated 2015).

The series is described as follows: Stability of bis azainositol Zirconium complexes under heat sterilization (HPLC with ICP-MS detection, ICP-OES). The class given is physicochemical. Particulars: absolute stability; aqueous, buffered solution at pH 7.4, 5 mmol/L of the compound, heated to 121 °C for 45 minutes in a steam autoclave. How it is done:
Stability of bis azainositol Zirconium complexes
The stability of bis azainositol Zirconium complexes was determined in aqueous, buffered solution at pH 7.4. The solution containing 5 mmol/L of the compound in a tightly sealed vessel was heated to 121 °C for 45 minutes in a steam autoclave. The Zirconium concentration of the solution was determined by ICP-OES before and after heat treatment. The integrity of the compound was determined by HPLC analysis before and after heat treatment. Absolute stability was calculated as the ratio of the peak area of the compound after and before the heat treatment multiplied with the ratio of the metal concentration of the solution after and before heat treatment.
• Column 1: Reversed phase C18. • Column 2: ZIC®-HILIC. • Solvent A1: 0,5 mM tetrabutylammonium phosphate pH 6 • Solvent A2: 0.1 % formic acid in water • Solvent B1: methanol • Solvent B2: acetonitrile
The use of columns, solvents, flow rate and gradients is detailed in the table below. Detector: element specific detection by ICP-MS, running at m/z 90, the most abundant isotope of Zirconium.

Substance “Bis[µ3-3,3',3"-({[1R-(1α,2α,3α,4α,5α,6α)]-2,4,6-trihydroxylato-1κ^2O^2O^6, 2κ^2O^2O^4,3κ^2O^4O^6-cyclohexane-1,3,5-triyl}tris{methylimino-1κN^1,2κN^3,3κN^5})tripropanoato-1κO,2κO',3κO"]trizirconium(IV) [Example 3]” returned a Stability of 100%.

The substance “Hydroxido-3κO-[µ3-3,3',3"-({[1R-(1α,2α,3α,4α,5α,6α)]-2,4,6-trihydroxylato-1κ^2O^2O^6, 2κO^2O^4,3κ^2O^4O^6-cyclohexane-1,3,5-triyl]tris{methylimino-1κN^1,2κN^3,3κN^5}) tri-propanoato-1κO,2κO',3κO"][µ3-3,3'-({[1R-(1α,2α,3α,4α,5α,6α)]-2,4,6-trihydroxylato-1κ^2O^2O^6,2κ^2O^2O^4,3κ^2O^4O^6-5-[methylamino-3κN^5]cyclohexane-1,3-diyl}bis{methyl-imino-1κN^1,2κN^3})dipropanonato-1κO,2κO']trizirconium(IV) [Example 4]” had a Stability of 100%.
